These results are taken from patent US7772429B2, “Diphenylazetidinone with improved physiological properties, process for its preparation, medicaments comprising this compound, and its use” (Sanofi-Aventis Deutschland GmbH, priority 2003, dated 2010).

≈ marks a conversion by molar mass, not a printed value. Where only a bound is given, the exact number is not on record here.

Series [1] in a line: Stability in solution in aqueous buffers (HPLC/UV). Conditions: for Increase of the area of the impurities in percent: 24 hours at 37° C. It is filed as physicochemical. How it is done:
The stability of dissolved compound I and of dissolved C1 was determined in aqueous buffers in the pH range 1.2-8.0. 1 mg of the compound in question was weighed into a 5 ml measuring flask. A small amount of acetonitrile was used to dissolve the substance. The flask was then filled up to the mark with the aqueous buffer. The precipitated compound was centrifuged and the clear supernatant was then tested for stability in solution for 24 hours at 37° C. The samples were evaluated using HPLC/UV.

The nature of series [2]: Solubility in aqueous buffers, FaSSIF and FeSSIF (HPLC/UV). It counts as physicochemical. Particulars: for solubility at 4 h: 25 °C, thermodynamic from solid. How it is done:
FaSSIF (fasted State Simulating Intestinal Fluid) and FeSSIF (Fed State Simulating Intestinal Fluid) media which reflect the pH/solubilization conditions in the upper small intestine in the pre- and postprandial state, respectively, were used to test this improved solubility.
0.5 mg of the compound to be tested was weighed exactly into an Eppendorf cap, and 0.5 ml of the solvent in question (aqueous buffer) was added. The Eppendorf cap was then introduced into a thermomixer and, at 25° C., shaken at 1 400 rpm for 4 hours.
The Eppendorf cap was then introduced into a centrifuge. Following centrifugation, an aliquot of the supernatant was used to determine the amount dissolved, using HPLC/UV analysis.

Series [3] concerns cholesterol absorption (uptake of 14C-cholesterol by the liver). In words: Cholesterol absorption test: uptake of 14C-cholesterol by the liver. It counts as in vivo, NMRI mice. Particulars: dose at which uptake of 14C-cholesterol by the liver is halved vs control group; mouse, peroral.
Where [4] appears, read: FaSSIF, repetition of the tests.
[5] abbreviates: FeSSIF, repetition of the tests.
[6] abbreviates: aqueous buffer, pH 1.2, simulated gastric fluid, pH 1.2 aqueous buffer, 4 hours.
Setting [7] is: aqueous buffer, pH 4.5, aqueous buffer, 4 hours.
Where [8] appears, read: aqueous buffer, pH 6.8, aqueous buffer, 4 hours.
The mark [9] stands for this setting: aqueous buffer, pH 8, aqueous buffer, 4 hours.
The mark [10] stands for this setting: based on an available volume of 250 ml (Biopharmaceutical Classification System), best case.

For `COc1ccc([C@@H]2[C@@H](CC[C@H](O)c3ccc(F)cc3)C(=O)N2c2ccc(CNC(=O)CCCCCCCCCCCNC(=O)[C@H](O)[C@@H](O)[C@H](O)[C@H](O)CO)cc2)cc1` [Example C1, reference compound], the “Increase of the area of the impurities in percent” value in series [1] (pH 1.2) is 13.3%; in series [1] (pH 6.8), 0.5%; in series [1] (pH 8.0), 4.6%. The solubility at 4 h is 5 µg/mL (≈ 6.17 µM) in series [2] (FaSSIF, 4 hours); 6 µg/mL (≈ 7.41 µM) in series [2] (setting [4]); 18 µg/mL (≈ 22.2 µM) in series [2] (FeSSIF, 4 hours); 20 µg/mL (≈ 24.7 µM) in series [2] (setting [5]); under 1 µg/mL in series [2] (setting [6]); under 1 µg/mL in series [2] (setting [7]). The solubility at 4 h was under 1 µg/mL in series [2] (setting [8]); under 1 µg/mL in series [2] (setting [9]); under 1 µg/mL in series [2] (water, shaken 4 hours). The soluble dose in series [2] (setting [10]) is about 5 mg; in series [2] (based on an available volume of 250 ml, worst case) it was 1.25 mg.
On to `COc1ccc([C@@H]2[C@@H](CC[C@H](O)c3ccc(F)cc3)C(=O)N2c2ccc(CNC(=O)CCCCCCCCCCC(=O)NC[C@H](O)[C@@H](O)[C@H](O)[C@H](O)CO)cc2)cc1` [Example I, dodecanedioic acid 4-[(2S,3R)-3-[(S)-3-(4-fluorophenyl)-3-hydroxypropyl]-2-(4-methoxyphenyl)-4-oxoazetidin-1-yl]benzylamide ((2S,3R,4R,5R)-2,3,4,5,6-pentahydroxyhexyl)amide], for which, in series [3], the “ED50 (liver)” value was 0.005 mg/mouse. Further, the “times more stable than C1” value in series [1] (depending on the pH, relative to C1) is reported as “at least 2.7 times”. Further, the “Increase of the area of the impurities in percent” value in series [1] (pH 1.2) was 4.9%; in series [1] (pH 6.8) it was 0%; in series [1] (pH 8.0), 0.2%. For the same compound, the solubility at 4 h was 28 µg/mL (≈ 34.6 µM) in series [2] (FaSSIF, 4 hours); 43 µg/mL (≈ 53.1 µM) in series [2] (setting [4]); 454 µg/mL (≈ 561 µM) in series [2] (FeSSIF, 4 hours); 290 µg/mL (≈ 358 µM) in series [2] (setting [5]); 3 µg/mL (≈ 3.7 µM) in series [2] (setting [6]); 4 µg/mL (≈ 4.94 µM) in series [2] (setting [7]). The solubility at 4 h in series [2] (setting [8]) came to 2 µg/mL (≈ 2.47 µM); in series [2] (setting [9]) it was 2 µg/mL (≈ 2.47 µM); in series [2] (water, shaken 4 hours), 3 µg/mL (≈ 3.7 µM). Further, the “pH of the water sample (Water (pH))” value in series [2] (Water, 25° C., shaken 4 hours) turned out to be 6.8. Also, the soluble dose in series [2] (setting [10]) is given as about 100 mg.

One may read the solubility as the concentration that dissolves in the medium under given conditions.
